Experimental data taken from patent US5750531A, “Pyrimidine derivatives and processes for the preparation thereof” (Yuhan Corporation, priority 1994, dated 1998).
Where a name gives a salt, the structure may show the parent alone.

Assays:
[1] = test system: gastric secretion; experiment: Inhibition of gastric secretion (pylorus ligation, Shay method); format: in vivo, Male Sprague-Dawley rats; settings: 20 mg/kg intraduodenally, 5 hours; for Rel. Conc.: acid concentration relative to omeprazole; for Relative Acid Output: acid output relative to omeprazole; for Rel. Vol.: gastric juice volume relative to omeprazole
Experimental: Inhibition of gastric secretion […] Under ether anesthesia, the abdomen was incised, and the pylorus was ligated. […] After closing the abdominal cavity, the rats were placed for 5 hours and then killed by cervical dislocation. The stomach was extracted to obtain gastric juice. The gastric juice was centrifuged at 1,000 g to remove precipitates. The amount and acidity of the gastric juice were measured. Relative volumes, relative acid concentrations and relative acid outputs of the test compounds were calculated from equations(I), (II) and (III) and the results are shown in Table 2. […] Group 3) (II) […] (III)

[2] = target: proton pump(H^+ /K^+ ATPase); experiment: Inhibition of proton pump(H^+ /K^+ ATPase) activity; format: biochemical; settings: pH 6.0, 37° C., 30 minutes preincubation and 30 minutes reaction; read-out: IC50 Test compound
Experimental: Test 1: Inhibition of proton pump(H^+ /K^+ ATPase) activity
A proton pump enzyme source was prepared by the same method as in Experiment 1-1 of WO 94/14795. Further, the inhibitory effect of proton pump activity was measured by the same method as in Experiment 1-2 of WO 94/14795.
Namely, the proton pump activity stimulated by Mg^++ was used as a negative comparative group, and the activity stimulated by Mg^++ and K^+ was used as a positive comparative group. The comparative compound was omeprazole.
Test tubes were divided into 4 groups: Group 1 as negative comparative group(n=3), Group 2 as positive comparative group(n=3), Group 3(n=5×2) to be administered with the compound of the present invention and Group 4(n=5×2) to be administered with the comparative compound.
The inhibitory effects of Groups 3 and 4 on proton pump activity were measured by employing the compound prepared in Example and omeperazole, respectively, each of which was dissolved in dimethylsulfoxide at 5 different concentrations.
To each of Groups 1, 2, 3 and 4 were added 100 μl of magnesium chloride(40 mM) dissolved in 40 mM Tris-HCl buffer(pH 6.0) and 100μ of the enzyme source. Then, 50μ of potassium chloride(50 mM) and 50 μl of ammonium chloride(6 mM) dissolved in 40 mM Tris-HCl buffer(pH 6.0) were added to all groups except for Group 1.
10 μl of dimethylsulfoxide was added to each of Groups 1 and 2; and to Group 3 was added 10 μl of the solution in which the compound prepared in Example was dissolved in dimethylsulfoxide at 5 different concentrations(n=5×2). To Group 4, 10 μl of the solution prepared by dissolving omeprazole in dimethylsulfoxide at 5 different concentrations(37.6, 21.4, 12.2, 7.0 and 4.0 μM) was added(n=5×2). 40 mM Tris-HCl buffer(pH=6.0) was added thereto so as to make the total volume 400 μl.
Thereafter, the test tubes of each Group were placed at 37° C. for 30 minutes for the preincubation. 100 μl of ATP solution (6.6 mM) was added until the reaction volume became 500 μl. After the reaction was carried out at 37° C. for 30 minutes, 25% cold trichloroacetic acid was added to terminate the enzyme reaction. The released inorganic phosphate was measured by an automatic analyzer(Express 550, Corning).
The difference between Group 1 and Group 2 represents the proton pump activity activated by K^+ only. The inhibition percentages of Groups 3 and 4 were calculated from Litchfield-wilcoxon equation[see, e.g., J. pharmacol. Exp. Ther., 96, 99(1949)]. The concentrations of the test compounds which inhibit 50% of the proton pump activity are represented as IC50 in Table 1.

CCc1cc(N2CCc3ccccc3C2)nc(Nc2ccc(F)cc2C)n1.Cl [Example 37, 6-ethyl-2-(2-methyl-4-fluorophenylamino)-4-(1,2,3,4-tetrahydroisoquinolin-2-yl)pyrimidine hydrochloride]
Rel. Conc. [1]: 0.42 | Relative Acid Output [1]: 0.82 | Rel. Vol. [1]: 0.82 | IC50 [2]: 0.7 µM

CCc1cc(N2CCc3ccccc3C2)nc(Nc2ccc(F)cc2)n1.Cl [Example 38, 6-ethyl-2-(4-fluorophenylamino)-4-(1,2,3,4-tetrahydroisoquinolin-2-yl)pyrimidine hydrochloride]
Rel. Conc. [1]: 0.37 | Relative Acid Output [1]: 0.74 | Rel. Vol. [1]: 0.74 | IC50 [2]: 2.2 µM

CCc1cc(N2CCc3ccccc3C2)nc(N(C)c2ccccc2)n1.Cl [Example 39, 6-ethyl-2-(N-methylphenylamino)-4-(1,2,3,4-tetrahydroisoquinolin-2-yl)pyrimidine hydrochloride]
Rel. Conc. [1]: 0.18 | Relative Acid Output [1]: 0.56 | Rel. Vol. [1]: 0.58 | IC50 [2]: > 15 µM

CCc1cc(N2CCc3ccccc3C2)nc(Nc2ccccc2C)n1.Cl [Example 40, 6-ethyl-2-(2-methylphenylamino)-4-(1,2,3,4-tetrahydroisoquinolin-2-yl)pyrimidine hydrochloride]
Rel. Conc. [1]: 0.36 | Relative Acid Output [1]: 0.74 | Rel. Vol. [1]: 0.71 | IC50 [2]: 0.7 µM

Cc1cc(F)ccc1Nc1nc(C)c(C)c(N2CCc3ccccc3C2)n1.Cl [Example 41, 5,6-dimethyl-2-(2-methyl-4-fluorophenylamino)-4-(1,2,3,4-tetrahydroisoquinolin-2-yl)pyrimidine hydrochloride]
Rel. Conc. [1]: 1.87 | Relative Acid Output [1]: 1.12 | Rel. Vol. [1]: 0.94 | IC50 [2]: 0.6 µM

Cc1nc(Nc2ccc(F)cc2)nc(N2CCc3ccccc3C2)c1C.Cl [Example 42, 5,6-dimethyl-2-(4-fluorophenylamino)-4-(1,2,3,4-tetrahydroisoquinolin-2-yl)pyrimidine hydrochloride]
Rel. Conc. [1]: 1.4 | Relative Acid Output [1]: 1.15 | Rel. Vol. [1]: 1.15 | IC50 [2]: 1.5 µM

CCc1nc(Nc2ccc(F)cc2C)nc(N2CCc3ccccc3C2)c1C.Cl [Example 44, 5-methyl-6-ethyl-2-(2-methyl-4-fluorophenylamino)-4-(1,2,3,4-tetrahydroisoquinolin-2-yl)pyrimidine hydrochloride]
Rel. Conc. [1]: 0.33 | Relative Acid Output [1]: 0.41 | Rel. Vol. [1]: 0.27 | IC50 [2]: ~11.3 µM

CCc1nc(Nc2ccc(F)cc2)nc(N2CCc3ccccc3C2)c1C.Cl [Example 45, 5-methyl-6-ethyl-2-(4-fluorophenylamino)-4-(1,2,3,4-tetrahydroisoquinolin-2-yl)pyrimidine hydrochloride]
Rel. Conc. [1]: 0.75 | Relative Acid Output [1]: 0.89 | Rel. Vol. [1]: 0.84 | IC50 [2]: 3.1 µM

CCc1nc(N(C)c2ccccc2)nc(N2CCc3ccccc3C2)c1C.Cl [Example 46, 5-methyl-6-ethyl-2-(N-methylphenylamino)-4-(1,2,3,4-tetrahydroisoquinolin-2-yl)pyrimidine hydrochloride]
Rel. Conc. [1]: 0.44 | Relative Acid Output [1]: 0.74 | Rel. Vol. [1]: 0.73 | IC50 [2]: ~19.2 µM

Cc1cc(F)ccc1Nc1nc2c(c(N3CCc4ccccc4C3)n1)CCC2 [Example 47, 2-(2-methyl-4-fluorophenylamino)-4-(1,2,3,4-tetrahydroisoquinolin-2-yl)cyclopenta[d]pyrimidine hydrochloride]
Rel. Conc. [1]: 0.14 | Relative Acid Output [1]: 0.38 | Rel. Vol. [1]: 0.38 | IC50 [2]: ~5 µM

Cc1cc(F)ccc1Nc1nc2c(c(N3CCc4ccccc4C3)n1)CCCC2.Cl [Example 48, 2-(2-methyl-4-fluorophenylamino)-4-(1,2,3,4-tetrahydroisoquinolin-2-yl)-5,6,7,8-tetrahydroquinazoline hydrochloride]
Rel. Conc. [1]: 0.04 | Relative Acid Output [1]: 0.16 | Rel. Vol. [1]: 0.17 | IC50 [2]: ~5.5 µM

Cl.Fc1ccc(Nc2nc3c(c(N4CCc5ccccc5C4)n2)CCCC3)cc1 [Example 49, 2-(4-fluorophenylamino)-4-(1,2,3,4-tetrahydroisoquinolin-2-yl)-5,6,7,8-tetrahydroquinazoline hydrochloride]
Rel. Conc. [1]: 0.02 | Relative Acid Output [1]: 0.16 | Rel. Vol. [1]: 0.2 | IC50 [2]: ~10.8 µM

CN(c1ccccc1)c1nc2c(c(N3CCc4ccccc4C3)n1)CCCC2.Cl [Example 50, 2-(N-methylphenylamino)-4-(1,2,3,4-tetrahydroisoquinolin-2-yl)-5,6,7,8-tetrahydroquinazoline hydrochloride]
Rel. Conc. [1]: 0.29 | Relative Acid Output [1]: 0.66 | Rel. Vol. [1]: 0.72 | IC50 [2]: ~16.9 µM

Cc1ccccc1Nc1nc2c(c(N3CCc4ccccc4C3)n1)CCCC2.Cl [Example 51, 2-(2-methylphenylamino)-4-(1,2,3,4-tetrahydroisoquinolin-2-yl)-5,6,7,8-tetrahydroquinazoline hydrochloride]
Rel. Conc. [1]: 0.12 | Relative Acid Output [1]: 0.59 | Rel. Vol. [1]: 0.59 | IC50 [2]: 1.1 µM

Cc1cc(N2CCc3ccsc3C2C)nc(Nc2ccc(F)cc2C)n1.Cl (stereo not drawn) [Example 52, 6-methyl-2-(2-methyl-4-fluorophenylamino)-4-(7-methyl-4,5,6,7-tetrahydrothieno[2,3-c]pyridin-6-yl)pyrimidine hydrochloride]
Rel. Conc. [1]: 0.94 | Relative Acid Output [1]: 1.12 | Rel. Vol. [1]: 1.34 | IC50 [2]: 0.5 µM

Cc1cc(N2CCc3ccsc3C2C)nc(Nc2ccc(F)cc2)n1.Cl (stereo not drawn) [Example 53, 6-methyl-4-(7-methyl-4,5,6,7-tetrahydrothieno[2,3-c]pyridin-6-yl)-2-(4-fluorophenylamino)pyrimidine hydrochloride]
Rel. Conc. [1]: 1.14 | Relative Acid Output [1]: 0.55 | Rel. Vol. [1]: 0.47 | IC50 [2]: 2.1 µM

Cc1cc(N2CCc3ccsc3C2C)nc(N(C)c2ccccc2)n1.Cl (stereo not drawn) [Example 54, 6-methyl-2-(N-methylphenylamino)-4-(7-methyl-4,5,6,7-tetrahydrothieno[2,3-c]pyridin-6-yl)pyrimidine hydrochloride]
Rel. Conc. [1]: 0.23 | Relative Acid Output [1]: 0.75 | Rel. Vol. [1]: 0.86 | IC50 [2]: 20.6 µM

Cc1cc(F)ccc1Nc1nc(C)c(C)c(N2CCc3ccsc3C2C)n1.Cl (stereo not drawn) [Example 55, 5,6-dimethyl-2-(2-methyl-4-fluorophenylamino)-4-(7-methyl-4,5,6,7-tetrahydrothieno[2,3-c]pyridin-6-yl)pyrimidine hydrochloride]
Rel. Conc. [1]: 0.11 | Relative Acid Output [1]: 0.51 | Rel. Vol. [1]: 0.56 | IC50 [2]: 2.1 µM

Cc1cc(Nc2ccc(F)cc2C)nc(N2CCc3ccccc3C2C)n1.Cl (stereo not drawn) [Example 57, 6-methyl-4-(2-methyl-4-fluorophenylamino)-2-(1-methyl-1,2,3,4-tetrahydroisoquinolin-2-yl)pyrimidine hydrochloride]
Rel. Conc. [1]: 0.27 | Relative Acid Output [1]: 0.61 | Rel. Vol. [1]: 1.2 | IC50 [2]: 3.3 µM

Cc1cc(Nc2ccc(F)cc2)nc(N2CCc3ccccc3C2C)n1.Cl (stereo not drawn) [Example 58, 6-methyl-4-(4-fluorophenylamino)-2-(1-methyl-1,2,3,4-tetrahydroisoquinolin-2-yl)pyrimidine hydrochloride]
Rel. Conc. [1]: 0.16 | Relative Acid Output [1]: 0.35 | Rel. Vol. [1]: 0.58 | IC50 [2]: > 25 µM

Cc1cc(Nc2ccc(F)cc2C)nc(N2CCc3ccsc3C2C)n1.Cl (stereo not drawn) [Example 59, 6-methyl-4-(2-methyl-4-fluorophenylamino)-2-(7-methyl-4,5,6,7-tetrahydrothieno[2,3-c]pyridin-6-yl)pyrimidine hydrochloride]
Rel. Conc. [1]: 0.25 | Relative Acid Output [1]: 0.56 | Rel. Vol. [1]: 0.51 | IC50 [2]: ~12.5 µM
